Experimental data as given in patent publication US20090054414A1, “Rufinamide for the Treatment of Post-Traumatic Stress Disorder” (SYNOSIA THERAPEUTICS, priority 2007, published 2009).

Tests used:
[1] = system: Male Rj: Wistar (Han) rats; test: Vogel Conflict Test in the rat; type: in vivo; conditions: 64 mg/kg p.o., 60 minutes before the test; p<0.01
Protocol: Rufinamide was dispersed in 0.5% methylcellulose (MC) in distilled water. Vehicle was dispersed in 0.5% MC in distilled water. Clobazam was dispersed in 0.5% MC in distilled water. Methylcellulose (Sigma), batch n° 62K0144, white powder. Distilled water (Laboratoire Aguettant, sterile water for injectable preparation). All substances were stored in a dry, dark, controlled access area and maintained at a controlled ambient temperature (+18° C.). The vehicle suspensions were stored at +4° C.
The vehicle, test substance and reference substance were administered in a volume of 5 ml/kg body weight.
Male Rj: Wistar (Han) rats, 171-205 g body weight range were used. They were supplied by Elevage Janvier, 53940 Le Genest-Saint-Isle, France.
Animals were delivered to the laboratory at least 5 days before the experiment, during which time they were acclimatized to the laboratory conditions. They were housed in groups of 5 in macrolon cages (41×25×14 cm) on wood litter (Litalabo—SPPS, 95100 Argenteuil, France) with free access to food (Code 113-SAFE, 91360 Epinay-sur-Orge, France) and water until
Results in grouped data tables are presented as means followed by a ± sign and the standard error of the mean (s.e.m.) on the basis of 15 animals per group and as percent change from control. The statistical tests used are indicated with the method. All statistical calculations were performed using commercial software (Microsoft Excel®, GB Stat version 6.5), and verified test by test according to Porsolt & Partners Pharmacology's standardized internal procedures. All differences were considered statistically significant when the null hypothesis could be rejected at the risk α=0.05 or less.
Rats were deprived of water for 48 hours and were then placed individually into a transparent Plexiglas enclosure (15×32×34 cm) with a floor consisting of stainless steel bars (0.4 cm) spaced 1 cm apart. The back wall of the enclosure was made of opaque Plexiglass thereby concealing the observer from the experimental animal. In the centre of the opposite wall, 5 cm above the floor, a metal water spout protruded into the cage and was connected to one pole of a shock generator (Apelex: Type 011346). The other pole of the shock generator was connected to the metal grid floor.
The rat was left to explore until it found the water spout. Then, every time it drank, it received a slight electric shock (1.7 mA, 1 sec.) 2 seconds after it started lapping. The number of shocks received (punished drinkings) was counted during a 3 minute period.
15 rats were studied per group. The test was performed blind.
rufinamide was evaluated at 25, 50, 100 and 200 mg/kg, administered p.o. 60 minutes before the test, and compared with a vehicle control group.
Clobazam (64 mg/kg), administered under the same experimental conditions, was used as reference substance.
Data were analyzed by comparing treated groups with vehicle control using unpaired Student's t tests.

[2] = small scale placebo controlled study; cited from earlier work
[3] = system: male OF-1 mice; conditions: general statement, no dose given; cited from earlier work
[4] = system: male OF-1 “intruder” mice; conditions: earlier work (Dixon et al. 1994); cited from earlier work
[5] = system: male OF-1 mice; test: half-enclosed platform (HEP) test; type: in vivo, mouse
Description: Rufinamide and carbamazepine were compared in the half-enclosed platform (HEP) test. The test determines how drugs affect the exploratory behaviour of a mouse placed upon a novel, half-enclosed platform and gives information as to whether a drug is a stimulant, depressant or disinhibitory as with, for example the benzodiazepines which increase exploration of the platform. It is also useful for determining duration of action and dose-findings studies. The HEP is a further development of the simple elevated platform used by Kaesermann to assess anxiolytic properties of drugs (Ref. Käsermann H. P. (1986) Psychopharmacol. 89:31-37). In this study carbamazepine and rufinamide were tested in the same dose ranges i.e. 0.32/1/3.2 and 10 mg/kg p.o. of each were given to male OF-1 mice 1 hr before testing.
The ethogram used consists of 9 elements of exploratory behaviour two of which involve static postures i.e. immobility and stretched attend posture, the latter being an ambivalent element indicative of approach-avoidance conflict. These elements are immediately spontaneous and are not induced by either training or punishment procedures. Upright postures which are posturally demanding are useful to detect muscle relaxation e.g. rearing (FIG. 10).

[6] = system: male OF-1 “intruder” mice; test: Intruder test (social withdrawal of intruder mice); type: in vivo, mouse; conditions: 1/3/10 mg/kg oral
Protocol: Rufinamide, a Na-channel blocker and anti-epileptic agent, and carbamazepine, an anticonvulsant employed to treat bipolar disorder, were given to male OF-1 “intruder” in oral-doses of 1/3/10 mg/kg, 1 hr before the animals were confronted with an individually-housed, aggressive, male OF-1 resident mouse. […] This increase in social investigation (sociotropic effect) was accompanied by a decrease in the frequency and duration of defensive ambivalence probably through competitive inhibition. No signs of motor stimulation were detected.
The Intruder test duplicates a territorial encounter between a territory holder (aggressive male) and a subordinate “intruder” mouse. […] In this test the intruders receive the treatment whereas the residents remain untreated. (Dixon, A. K., Huber, C., Lowe, D. J. Clin. Psychiatry. 55 (9) Suppl B, 4-7 (1994)). For purposes of this study, rufinamide and carbamazepine were given orally to intruder mice 1 hr before being introduced singly to aggressive residents using doses of ⅓ and 10 mg/kg.
Over 60 ethological elements describing the social and non-social behaviour of mice based on the ethogram originally proposed by Grant and Mackintosh (Grant, E. C. Mackintosh, J. H. Behaviour 21: 246-259 (1963) ) and classified according to 9 behavioural categories (Dixon, A. K., Huber, C., Fisch, H. U. Adv. Study. Behaviour. 19: 171-204 (1990)) form the rodent ethogram as used in this test (FIG. 3).

[7] = system: “intruder” rat; conditions: background statement on anxiolytic compounds; cited from earlier work

## CN1C(=O)CC(=O)N(c2ccccc2)c2cc(Cl)ccc21 [Clobazam]
[1]
  number of shocks received (punished drinking), change vs vehicle control: +64%

## Nc1nnc(-c2cccc(Cl)c2Cl)c(N)n1 [Lamotrigine]
[2]
  efficacy in treating post-traumatic stress disorder: some efficacy

## CC(N)Cc1ccccc1 (stereo not shown) [amphetamine]
[3]
  behavioural disinhibition in the HEP test: not

## NC(=O)N1c2ccccc2C=Cc2ccccc21 [carbamazepine]
[4]
  social withdrawal in the Intruder test: reverses social withdrawal
[5]; 0.32-10 mg/kg p.o., not attaining statistical significance
  exploratory activity (Sap,Go) in the open half of the platform: general tendency for increased exploratory activity
[5]; 0.32/1/3.2 and 10 mg/kg p.o., 1 hr before testing
  overall ethological profile: No major changes in behaviour occurred
[5]; at 10 mg/kg p.o.
  elements of stationary activity: significant decrease
[5]; at 3.2 and 10 mg/kg p.o.
  time spent in forward locomotion (Go) in the enclosed half: significant shortening
[6]; 1 hr before 6 minute encounter
  non-social (NS) behaviour, frequency: did not change
[6]; 1 hr before 6 minute encounter, frequency and duration
  social investigation (SI): dose-related increase
[6]; 1 hr before encounter
  defensive ambivalence: reduced but, because of large variation did not attain significance
  overall social contact (SIM): social investigation combined with mating behaviour: preserved the clear sociotropic action
  static-flight elements: dose-related reduction persisted but also did not attain significance
  total number of ethological elements performed in the 6 minute encounter: did not change

## CN1C(=O)CN=C(c2ccccc2)c2cc(Cl)ccc21 [diazepam]
[7]
  intruder's fear and tendency to scrutinize the resident partner: reduce the intruder's fear and to increase its tendency to scrutinize the resident partner
[3]
  behavioural disinhibition in the HEP test: demonstrable
